≈ marks a conversion by molar mass, not a printed value. Where two headings read alike, the source gives them in different places.
Tests used:
[1] = system: HepG2 cells; test: Cytotoxicity against HepG2 cell line (CellTiter-Glo); assay type: cell-based; conditions: for IC50: Homo sapiens, 48 h, HepG2, 2 days incubation, read-out: IC50 (concentration required to reduce the viability of HepG2 cells by 50%); for Selectivity index (SI) = IC50/MIC90: HepG2 IC50 / M. tuberculosis MIC90
[2] = system: M. tuberculosis H37Rv; test: MIC90 against M. tuberculosis in liquid medium; assay type: cell-based, Mycobacterium tuberculosis; conditions: liquid medium 7H9-Tw-OADC, aerobic, 5 days, average ± SD of two independent experiments; for MIC90: read-out: MIC (MIC90, minimum concentration required to inhibit growth of M. tuberculosis by 90%)
[3] = Mycobacterium tuberculosis, H37RV, 120 h

Compound | melting point [°C] | IC50 [1] [µM] | MIC90 [2, 3] [µM] | Selectivity index (SI) = IC50/MIC90 [1] | MIC90 [2] [µM] | MIC (MIC90, minimum concentration required to inhibit growth of M. tuberculosis by 90%) [2] [µM]
COc1ccc(CNc2cc(-c3ccccc3)nc3ncnn23)cc1 [Compound 38, N-(4-Methoxybenzyl)-5-phenyl-[1,2,4]triazolo[1,5-a]pyrimidin-7-amine] | 162 to 163 | 43 | > 20 | – | – | –
COc1ccc(CCNc2cc(C3CCCC3)nc3ncnn23)cc1 [Compound 24, 5-Cyclopentyl-N-(4-methoxyphenethyl)-[1,2,4]triazolo[1,5-a]pyrimidin-7-amine] | 99 to 100 | 95 | 5.5 ± 0.07 (≈ 1.86 µg/mL) | 17 | – | –
c1ccc(-c2cc(NCCc3cccnc3)n3ncnc3n2)nc1 [Compound 53, 5-(Pyridin-2-yl)-N-(2-(pyridin-3-yl)ethyl)-[1,2,4]triazolo[1,5-a]pyrimidin-7-amine] | 212 to 213 | > 100 | > 20 | – | – | –
Clc1ccc(CCNc2cc(-c3ccccn3)nc3ncnn23)cc1 [Compound 60, N-(4-Chlorophenethyl)-5-(pyridin-2-yl)-[1,2,4]triazolo[1,5-a]pyrimidin-7-amine] | – | > 100 | 0.76 ± 0.25 (≈ 0.267 µg/mL) | >135 | – | –
COc1ccc(CCNc2cc(-c3ccccn3)nc3nc(C)nn23)cc1 [Compound 67, N-(4-Methoxyphenethyl)-2-methyl-5-(pyridin-2-yl)-[1,2,4]triazolo[1,5-a]pyrimidin-7-amine] | 139 to 141 | > 100 | 3.9 ± 0.21 (≈ 1.41 µg/mL) | >26 | – | –
CCCNc1cc(-c2ccccc2)nc2ncnn12 [Compound 31, 5-Phenyl-N-propyl-[1,2,4]triazolo[1,5-a]pyrimidin-7-amine] | 139 to 140 | 94 | > 20 | – | – | –
COc1ccc(C2CCN(c3cc(-c4ccccn4)nc4ncnn34)C2)cc1 (stereo not shown) [Compound 62, 7-(3-(4-Methoxyphenyl)pyrrolidin-1-yl)-5-(pyridin-2-yl)-[1,2,4]triazolo[1,5-a]pyrimidine] | 222 to 223 | 23 | > 20 | – | – | –
COc1ccc(CCNc2cc(-c3ccccn3)nc3nc(-c4ccccc4)nn23)cc1 [Compound 68, N-(4-Methoxyphenethyl)-2-phenyl-5-(pyridin-2-yl)-[1,2,4]triazolo[1,5-a]pyrimidin-7-amine] | 146 to 148 | > 100 | > 20 | – | >20 | –
FC(F)(F)Oc1ccc(CCNc2cc(-c3ccccn3)nc3ncnn23)cc1 [Compound 59, 5-(Pyridin-2-yl)-N-(4-(trifluoromethoxy)phenethyl)-[1,2,4]triazolo[1,5-a]pyrimidin-7-amine] | 163 to 165 | > 100 | 1.6 ± 1.1 (≈ 0.641 µg/mL) | >72 | – | –
CCc1ccc(CCNc2cc(-c3ccccc3)nc3ncnn23)cc1 [Compound 45, N-(4-Ethylphenethyl)-5-phenyl-[1,2,4]triazolo[1,5-a]pyrimidin-7-amine] | 152 to 154 | > 100 | 0.74 ± 0.1 (≈ 0.254 µg/mL) | >138 | – | –
COc1ccc(CCNc2cc(-c3ccc(F)cc3)nc3ncnn23)cc1 [Compound 13, 5-(4-Fluorophenyl)-N-(4-methoxyphenethyl)-[1,2,4]triazolo[1,5-a]pyrimidin-7-amine] | 153 to 155 | 89 | 4.4 ± 2 (≈ 1.6 µg/mL) | – | – | –
COc1ccc(CCNc2cc(-c3ccccc3)nc3ncnn23)cc1 [Compound 1, N-(4-methoxyphenethyl)-5-phenyl-[1,2,4]triazolo[1,5-a]pyrimidin-7-amine] | – | > 100 | 3.1 (≈ 1.07 µg/mL) | >32 | – | 3.1 ± 1.3
c1ccc(-c2cc(NCCc3cccnc3)n3ncnc3n2)cc1 [Compound 42, 5-Phenyl-N-(2-(pyridin-3-yl)ethyl)-[1,2,4]triazolo[1,5-a]pyrimidin-7-amine] | 169 to 171 | > 100 | > 20 | – | – | –
COc1ccc(CCNc2cc(C)nc3ncnn23)cc1 [Compound 20, N-(4-Methoxyphenethyl)-5-methyl-[1,2,4]triazolo[1,5-a]pyrimidin-7-amine] | 129 to 130 | > 100 | > 20 | – | – | –
FC(F)(F)c1ccc(CCNc2cc(-c3ccccn3)nc3ncnn23)cc1 [Compound 58, 5-(Pyridin-2-yl)-N-(4-(trifluoromethyl)phenethyl)-[1,2,4]triazolo[1,5-a]pyrimidin-7-amine] | – | > 100 | 0.98 ± 0.4 (≈ 0.377 µg/mL) | >119 | – | –
COc1ccc(CCNc2cc(C3CCCCC3)nc3ncnn23)cc1 [Compound 25, 5-Cyclohexyl-N-(4-methoxyphenethyl)-[1,2,4]triazolo[1,5-a]pyrimidin-7-amine] | 193 to 194 | 47 | > 20 | – | – | –
COc1ccc(Nc2cc(-c3ccccc3)nc3ncnn23)cc1 [Compound 37, N-(4-Methoxyphenyl)-5-phenyl-[1,2,4]triazolo[1,5-a]pyrimidin-7-amine] | 200 to 202 | 49 | > 20 | – | – | –

Compound | melting point [°C] | IC50 [1] [µM] | MIC90 [2, 3] [µM] | Selectivity index (SI) = IC50/MIC90 [1] | MIC90 [2] [µM] | MIC (MIC90, minimum concentration required to inhibit growth of M. tuberculosis by 90%) [2] [µM]
CCc1cc(NCCc2ccc(OC)cc2)n2ncnc2n1 [Compound 21, 5-ethyl-N-(4-methoxyphenethyl)-[1,2,4]triazolo[1,5-a]pyrimidin-7-amine] | 70 to 72 | > 100 | > 20 | – | – | –
COc1ccc(CCNc2cc(-c3ccccc3F)nc3ncnn23)cc1 [Compound 14, 5-(2-Fluorophenyl)-N-(4-methoxyphenethyl)-[1,2,4]triazolo[1,5-a]pyrimidin-7-amine] | 153 to 155 | > 100 | 3 ± 0.21 (≈ 1.09 µg/mL) | >30 | – | –
COc1ccc(CCNc2cc(C3CC3)nc3ncnn23)cc1 [Compound 22] | – | > 100 | 5.8 ± 1.6 (≈ 1.79 µg/mL) | >17 | – | –
COc1ccc(CC(=O)Nc2cc(-c3ccccc3)nc3ncnn23)cc1OC [Compound 50, 2-(3,4-Dimethoxyphenyl)-N-(5-phenyl-[1,2,4]triazolo[1,5-a]pyrimidin-7-yl)acetamide] | 202 to 204 | > 100 | 10 ± 1.1 (≈ 3.89 µg/mL) | >10 | – | –
COc1ccc(CCNc2cc(-c3ccncc3)nc3ncnn23)cc1 [Compound 18, N-(4-Methoxyphenethyl)-5-(pyridin-4-yl)-[1,2,4]triazolo[1,5-a]pyrimidin-7-amine] | 217 to 219 | 69 | > 20 | – | – | –
c1ccc(-c2cc(NCCc3ccncc3)n3ncnc3n2)cc1 [Compound 43, 5-Phenyl-N-(2-(pyridin-4-yl)ethyl)-[1,2,4]triazolo[1,5-a]pyrimidin-7-amine] | 231 to 233 | > 100 | > 20 | – | – | –
CCNc1cc(-c2ccccc2)nc2ncnn12 [Compound 30, N-Ethyl-5-phenyl-[1,2,4]triazolo[1,5-a]pyrimidin-7-amine] | 170 to 172 | 37 | > 20 | – | – | –
Fc1ccc(CCNc2cc(-c3ccccc3)nc3ncnn23)cc1 [Compound 46, N-(4-Fluorophenethyl)-5-phenyl-[1,2,4]triazolo[1,5-a]pyrimidin-7-amine] | 169 to 170 | 50 | > 20 | – | – | –
COc1ccc(CCNc2cc(-c3ccc(C)cc3)nc3ncnn23)cc1 [Compound 9, N-(4-Methoxyphenethyl)-5-(p-tolyl)-[1,2,4]triazolo[1,5-a]pyrimidin-7-amine] | 155 to 156 | 37 | > 20 | – | – | –
COc1ccc(CCNc2cc(-c3ccccc3Cl)nc3ncnn23)cc1 [Compound 12, 5-(2-Chlorophenyl)-N-(4-methoxyphenethyl)-[1,2,4]triazolo[1,5-a]pyrimidin-7-amine] | – | > 100 | > 20 | – | – | –
COc1ccc(CCNc2cc(-c3ccccc3OC)nc3ncnn23)cc1 [Compound 8, N-(4-Methoxyphenethyl)-5-(2-methoxyphenyl)-[1,2,4]triazolo[1,5-a]pyrimidin-7-amine] | 148 to 149 | 87 | > 20 | – | – | –
COc1ccc(CCNc2cc(-c3ccc(Cl)cc3)nc3ncnn23)cc1 [Compound 11, 5-(4-Chlorophenyl)-N-(4-methoxyphenethyl)-[1,2,4]triazolo[1,5-a]pyrimidin-7-amine] | 178 to 180 | 65 | > 20 | – | – | –
COc1ccc(CCNc2cc(-c3ccc(OC)cc3)nc3ncnn23)cc1 [Compound 7, N-(4-Methoxyphenethyl)-5-(4-methoxyphenyl)-[1,2,4]triazolo[1,5-a]pyrimidin-7-amine] | 130 to 131 | > 100 | > 20 | – | – | –
CCc1ccc(-c2cc(NCCc3ccc(OC)cc3)n3ncnc3n2)cc1 [Compound 10, 5-(4-Ethylphenyl)-N-(4-methoxyphenethyl)-[1,2,4]triazolo[1,5-a]pyrimidin-7-amine] | – | > 100 | > 20 | – | – | –
COc1ccc(C2CN(c3cc(-c4ccccn4)nc4ncnn34)CCO2)cc1 (stereo not shown) [Compound 64, 2-(4-Methoxyphenyl)-4-(5-(pyridin-2-yl)-[1,2,4]triazolo[1,5-a]pyrimidin-7-yl)morpholine] | – | 50 | > 20 | – | – | –
COc1ccc(C2CCCN(c3cc(-c4ccccn4)nc4ncnn34)C2)cc1 (stereo not shown) [Compound 63, 7-(3-(4-Methoxyphenyl)piperidin-1-yl)-5-(pyridin-2-yl)-[1,2,4]triazolo[1,5-a]pyrimidine] | – | 16 | > 20 | – | – | –
